Tests used:
[1] = tested on: Psl polysaccharide production; assay: Psl immunoblot analysis; format: cell-based, Pseudomonas aeruginosa; details: C9 5 mM, Jensen media, 37° C., 24 hours
Method: Pseudomonas aeruginosa PAO1 was inoculated in Jensen media at 37° C. for 24 hours with shaking and treated with the coumarin-chalcone compound C9 (5 mM) or DMSO (5 mM), respectively. OD600 values of the overnight cultured bacterial solutions were measured, and a bacterial solution with an OD (optical density) of 10 was collected. The bacterial solution with the OD of 10 was a bacterial solution whose OD600 was 2 and the collected volume was 5 mL. The bacterial solution was centrifuged at 13000 r/min for 5 min and the corresponding supernatant was discarded. The obtained precipitate was dissolved in 100 μL of 0.5 M EDTA. Then the EDTA solution was boiled at 100° C. for 5 min and centrifuged, and the precipitate was discarded. The obtained supernatant was treated with proteinase K (final concentration, 0.5 mg/mL) for 1 h at 60° C., followed by inactivation of proteinase K for 30 min at 80° C. to obtain a polysaccharide extract. A volume of 3 μL of polysaccharide extract was spotted onto a nitrocellulose membrane and dried. After washing with TBST for 3 times, a blocking was done with 10% skimmed milk at room temperature for 1 h. The anti-Psl antibody (i.e., a primary antibody) (1:25,000 dilution) was added and then solution was treated at 25° C. for 1 h. […] Western blot data was quantitatively analyzed using Image Lab™ 5.1 software.

[2] = tested on: c-di-GMP (PAO1/pCdrA::gfp (ASV)); assay: Intracellular c-di-GMP, indirect, pCdrA::gfp reporter; format: cell-based, Pseudomonas aeruginosa; details: FIG. 6
Description: (§1) The intracellular c-di-GMP may control the conversion of bacterial lifestyle between plankton and biofilm. In order to analyze an effect of the coumarin-chalcone compound C9 on a concentration of the intracellular c-di-GMP, direct and indirect methods were used to measure the level of c-di-GMP in Pseudomonas aeruginosa.
Since the transcription and expression of the extracellular protein CdrA was related to the intracellular concentration of cyclic diguanylic acid (c-di-GMP), PAO1/pCdrA::gfp^s (ASV) was used to analyze c-di-GMP level indirectly.

pKa by HCl/KOH titration = format: physicochemical; details: titration with HCl (25 mM) and KOH (25 mM)
Method: UV-Vis spectral analysis was used to study the stability of the coumarin-chalcone compound C9 at a pH range of 3.4 to 8.4. […] After reaching pH=2, KOH (25 mM) was added slowly until the pH reached 12. In this way, a graph of a relationship between the pH and the volume of KOH added was plotted to find an equivalent point and thus the pKa.

[3] = tested on: Pseudomonas aeruginosa biofilm; assay: MBEC of antibiotics, Calgary biofilm device; format: cell-based; details: treated with C9 5 mM, versus untreated group
Method: MIC and MBEC values of a biofilm formed on a peg of a […] biofilm device (CGM and CBD) treated with the coumarin-chalcone compound C9 were measured according to methods (Innovotech) in MBECTM high throughput experimental operation manual. Biofilm treated with the coumarin-chalcone compound C9 (5 mM) was cultured in an antibiotic-containing medium in a 96-well plate for 24 h, and the MIC value was obtained by measuring the OD600 of planktonic cells of the above samples. To determine the MBEC value, the biofilm treated with the coumarin-chalcone compound C9 (5 mM) was cultured in an antibiotic-containing medium in a 96-well plate for 24 h, then the biofilm was ultrasonically crushed and subsequently incubated at 37° C. for another 24 hours. Biomass of newly formed biofilms was recorded to indicate the corresponding MBEC value.

intracellular c-di-GMP = assay: Intracellular c-di-GMP, direct, LC-MS/MS quantification; format: cell-based, Pseudomonas aeruginosa; details: FIG. 7
Description: as §1
C-di-GMP was directly extracted from PAO1 strain grown with or without the coumarin-chalcone compound C9. The intracellular c-di-GMP was directly measured by LC-MS/MS quantification.

[4] = tested on: Staphylococcus aureus biofilm; assay: 96-well plate crystal violet biofilm detection; format: cell-based; details: FIG. 11
Method: 1% inoculation amount of the bacterial solution cultured overnight was inoculated into 100 μL Jensen liquid medium. Different equal amounts of bacteria solution with C1 to C12, respectively, or without any additional substance were cultured in a 96-well polyvinyl chloride (PVC) plate (costar) overnight at 30° C. without agitation.
The bacterial biomass adsorbed on the 96-well PVC plate was detected by a crystal violet method, and steps were described as below. (1) The non-attached bacteria were removed using a pipettor, then the wells were gently rinsed with normal saline for 3 times. (2) A volume of 120 μL 0.1% crystal violet solution was added to stain the firmly attached bacterial cells in each well, which then staying static at room temperature for 30 min. (3) The PVC plate was taken out, the crystal violet solution was removed with a pipettor, and the non-attached crystal violet solution was washed with normal saline. (4) The crystal violet attached onto the PVC plate was dissolved with 200 μL of 30% acetic acid solution. The OD value of the acetic acid solution in each well was measured at 560 nm with a spectrophotometer.
FIG. 11 is a schematic diagram illustrating an inhibiting effect of a coumarin-chalcone compound C9 on Staphylococcus aureus and Escherichia coli biofilms. […]

Pseudomonas aeruginosa [5] = assay: Antibiotic susceptibility, filter paper method (inhibition area); format: cell-based; details: C9 5 mM in culture medium, versus control group
Method: In the experiment, the coumarin-chalcone compound C9 (5 mM) was added to a culture medium, and an inhibition area of the corresponding antibiotics was measured by a conventional filter paper method.

Pseudomonas aeruginosa [6] = assay: Virulence in cabbage model; format: in vivo; details: C9 5 mM, 37° C., 36 hours, CFU
Method: The PAO1 culture inoculated with the coumarin-chalcone compound C9 (5 mM) was injected into a cabbage model and incubated at 37° C. for 36 hours. Then the colony phenotype was observed and colony-forming units (CFU) were calculated.
In the embodiment, the cabbage model was used to carry out the vivo experiment in vivo to study whether the coumarin-chalcone compound C9 affects the virulence of Pseudomonas aeruginosa. FIG. 9 is a schematic diagram illustrating virulences of bacteria of a blank group, a control group, and an experimental group treated with a coumarin-chalcone compound C9.

**Q.** For `COc1cccc(/C=C/C(=O)c2cc3ccccc3oc2=O)c1` [Compound C9], which “reduction of Psl production” value [1] is on record?
**A.** Its value is 60%.

**Q.** And the “fluorescence intensity of PAO1/pCdrA::gfp (ASV)” value [2]?
**A.** Its value is “significantly reduced”.

**Q.** And the pKa (pKa by HCl/KOH titration)?
**A.** Its pKa is 5.66.

**Q.** And the “MBEC of a biofilm against ciprofloxacin” value [3]?
**A.** The value was “significantly lower”.

**Q.** And the “MBEC of a biofilm against tobramycin” value [3]?
**A.** Its value is “significantly lower”.

**Q.** And the “reduction on the c-di-GMP concentration” value (intracellular c-di-GMP)?
**A.** The value was 2 fold.

**Q.** And the “reduction of Staphylococcus aureus biofilm” value [4]?
**A.** Its value is 30%.

**Q.** What about the “susceptibility of Pseudomonas aeruginosa to fluoroquinolone antibiotics (CIP)” value (Pseudomonas aeruginosa [5]) of the same molecule?
**A.** Its value is “significantly higher”.

**Q.** And the “reduction of virulence of Pseudomonas aeruginosa in the cabbage model” value (Pseudomonas aeruginosa [6])?
**A.** The value was 60%.

Reference: patent publication US11950594B2, “Methods and compositions for inhibiting formation of biofilms” (INSTITUTE OF MICROBIOLOGY, CHINESE ACADEMY OF SCIENCES, priority 2019, dated 2024)
